# System: KARPAS422 human B cell lymphoma cell
# Test: Cell proliferation, KARPAS422, 7 day treatment (WST-8)
# Type: cell-based
# Details: Homo sapiens, KARPAS-422, 168 h, anti-proliferative IC50, Karpas 422 cell line, 7 day treatment; read-out: Karpas Cell line
# Experimental: “N/A” stands for “not assessed”.
# Analysis of Cell Proliferation:
# To assess the effect of PRC2 inhibition on cell growth, cells were seeded in 96-well cell culture plates at a density of 2 000-3 000 cells/well in 200 µL of culture medium, and treated with serially diluted compounds for 7 days at 37° C. in an atmosphere of 5% CO2. Cell growth was evaluated by a […] WST-8 assay (Dojindo Molecular Technologies) using a Tecan Infinite M1000 multimode microplate reader (Tecan, Morrisville, NC). The WST-8 reagent was added to the plate, incubated for 1-4 h, and read at 450 nm. The readings were normalized to the DMSO-treated cells, and the IC50 was calculated by nonlinear regression analysis using GraphPad Prism 6 software
row,SMILES,IC50
1,"c1ccc(-c2cnc(NCc3ccco3)n3cncc23)cc1 [Cpd. No. 126, N-(furan-2-ylmethyl)-8-phenylimidazo[1,5-c]pyrimidin-5-amine]",> 100 nM
2,"CCOC(=O)c1ncn2c(NCc3ccco3)ncc(-c3ccccc3)c12 [Cpd. No. 127, ethyl 5-((furan-2-ylmethyl)amino)-8-phenylimidazo[1,5-c]pyrimidine-1-carboxylate]",> 100 nM
3,"CNC(=O)c1ncn2c(NCc3ccco3)ncc(-c3ccccc3)c12 [Cpd. No. 128, 5-((furan-2-ylmethyl)amino)-N-methyl-8-phenylimidazo[1,5-c]pyrimidine-1-carboxamide]",> 100 nM
4,"Fc1ccc2c(c1CNc1ncc(-c3ccccc3)c3c(C(F)(F)F)ncn13)CCO2 [Cpd. No. 143, N-((5-fluoro-2,3-dihydrobenzofuran-4-yl)methyl)-8-phenyl-1-(trifluoromethyl)imidazo[1,5-c]pyrimidin-5-amine]",> 100 nM
5,"CP(C)(=O)c1ncn2c(NCc3c(F)ccc4c3CCO4)ncc(-c3ccccc3)c12 [Cpd. No. 144, (5-(((5-fluoro-2,3-dihydrobenzofuran-4-yl)methyl)amino)-8-phenylimidazo[1,5-c]pyrimidin-1-yl)dimethylphosphine oxide]",> 10 nM
6,"Cn1ncc2c1CNC(=O)c1ncn3c(NCc4c(F)ccc5c4CCO5)ncc-2c13 [compound 53, 11-(((5-fluoro-2,3-dihydrobenzofuran-4-yl)methyl)amino)-6-methyl-5,6-dihydro-2,4,6,7,10,11a-hexaazacyclopenta[4,5]cycloocta[1,2,3-cd]inden-3(4H)-one]",> 100 nM
7,"Cn1cc2c(n1)COC(=O)c1ncn3c(NCc4c(F)ccc5c4CCO5)ncc-2c13 [compound 54, 11-(((5-fluoro-2,3-dihydrobenzofuran-4-yl)methyl)amino)-7-methyl-5,7-dihydro-3H-4-oxa-2,6,7,10,11a-pentaazacyclopenta[4,5]cycloocta[1,2,3-cd]inden-3-one]",> 100 nM
8,"O=C1c2ncn3c(NCc4c(F)ccc5c4CCO5)ncc(c23)-c2ccc(C(F)(F)F)nc2CN1CC1CC1 [compound 55, 4-(cyclopropylmethyl)-12-(((5-fluoro-2,3-dihydrobenzofuran-4-yl)methyl)amino)-7-(trifluoromethyl)-4,5-dihydro-3H-2,4,6,11,12a-pentaazabenzo[4,5]cycloocta[1,2,3-cd]inden-3-one]",8.08 nM
9,"Cc1nn(C)c2c1-c1cnc(NCc3c(F)ccc4c3CCO4)n3cnc(c13)C(=O)N(C1CC1)C2 [compound 56, 4-cyclopropyl-11-(((5-fluoro-2,3-dihydrobenzofuran-4-yl)methyl)amino)-6,8-dimethyl-5,6-dihydro-2,4,6,7,10,11a-hexaazacyclopenta[4,5]cycloocta[1,2,3-cd]inden-3(4H)-one]",21 nM
10,"CC(C)N1Cc2nc(C(F)(F)F)ccc2-c2cnc(NCc3c(F)ccc4c3CCO4)n3cnc(c23)C1=O [compound 59, 12-(((5-fluoro-2,3-dihydrobenzofuran-4-yl)methyl)amino)-4-isopropyl-7-(trifluoromethyl)-4,5-dihydro-3H-2,4,6,11,12a-pentaazabenzo[4,5]cycloocta[1,2,3-cd]inden-3-one]",39.9 nM

# Stronger by IC50, values ahead:
row,IC50,SMILES
1,3.68 nM,"O=C1OCc2cc(OC(F)(F)F)ccc2-c2cnc(NCc3c(F)ccc4c3CCO4)n3cnc1c23 [compound 31, 12-(((5-fluoro-2,3-dihydrobenzofuran-4-yl)methyl)amino)-7-(trifluoromethoxy)-3H,5H-4-oxa-2,11,12a-triazabenzo[4,5]cycloocta[1,2,3-cd]inden-3-one]"
2,0.57 nM,"O=C1c2ncn3c(NCc4c(F)ccc5c4CCO5)ncc(c23)-c2ccc(C(F)(F)F)nc2CN1CC1CCOCC1 [compound 46, 12-(((5-fluoro-2,3-dihydrobenzofuran-4-yl)methyl)amino)-4-((tetrahydro-2H-pyran-4-yl)methyl)-7-(trifluoromethyl)-4,5-dihydro-3H-2,4,6,11,12a-pentaazabenzo[4,5]cycloocta[1,2,3-cd]inden-3-one]"
3,0.65 nM,"CC1(O)CC(CN2Cc3nc(C(F)(F)F)ccc3-c3cnc(NCc4c(F)ccc5c4CCO5)n4cnc(c34)C2=O)C1 (centres unmarked) [compound 47, 12-(((5-fluoro-2,3-dihydrobenzofuran-4-yl)methyl)amino)-4-((3-hydroxy-3-methylcyclobutyl)methyl)-7-(trifluoromethyl)-4,5-dihydro-3H-2,4,6,11,12a-pentaazabenzo[4,5]cycloocta[1,2,3-cd]inden-3-one]"
4,0.74 nM,"CC(C)(O)CN1Cc2cc(C(F)(F)F)ncc2-c2cnc(NCc3c(F)ccc4c3CCO4)n3cnc(c23)C1=O [compound 48, 12-(((5-fluoro-2,3-dihydrobenzofuran-4-yl)methyl)amino)-4-(2-hydroxy-2-methylpropyl)-7-(trifluoromethyl)-4,5-dihydro-3H-2,4,8,11,12a-pentaazabenzo[4,5]cycloocta[1,2,3-cd]inden-3-one]"
5,2.78 nM,"CC1(O)CC(CN2Cc3cc(C(F)(F)F)ncc3-c3cnc(NCc4c(F)ccc5c4CCO5)n4cnc(c34)C2=O)C1 (centres unmarked) [compound 49, 12-(((5-fluoro-2,3-dihydrobenzofuran-4-yl)methyl)amino)-4-((3-hydroxy-3-methylcyclobutyl)methyl)-7-(trifluoromethyl)-4,5-dihydro-3H-2,4,8,11,12a-pentaazabenzo[4,5]cycloocta[1,2,3-cd]inden-3-one]"
6,0.71 nM,"Cc1ccc2c(n1)CN(CC1CC(C)(O)C1)C(=O)c1ncn3c(NCc4c(F)ccc5c4CCO5)ncc-2c13 (centres unmarked) [compound 50, 12-(((5-fluoro-2,3-dihydrobenzofuran-4-yl)methyl)amino)-4-((3-hydroxy-3-methylcyclobutyl)methyl)-7-methyl-4,5-dihydro-3H-2,4,6,11,12a-pentaazabenzo[4,5]cycloocta[1,2,3-cd]inden-3-one]"
7,2.08 nM,"O=C1c2ncn3c(NCc4c(F)ccc5c4CCO5)ncc(c23)-c2ccc(C(F)(F)F)nc2CN1C1CCOCC1 [compound 51, 12-(((5-fluoro-2,3-dihydrobenzofuran-4-yl)methyl)amino)-4-(tetrahydro-2H-pyran-4-yl)-7-(trifluoromethyl)-4,5-dihydro-3H-2,4,6,11,12a-pentaazabenzo[4,5]cycloocta[1,2,3-cd]inden-3-one]"
8,0.54 nM,"O=C1c2ncn3c(NCc4c(F)ccc5c4CCO5)ncc(c23)-c2ccc(C(F)(F)F)nc2CN1CC1CCOC1 (centres unmarked) [compound 52, 12-(((5-fluoro-2,3-dihydrobenzofuran-4-yl)methyl)amino)-4-((tetrahydrofuran-3-yl)methyl)-7-(trifluoromethyl)-4,5-dihydro-3H-2,4,6,11,12a-pentaazabenzo[4,5]cycloocta[1,2,3-cd]inden-3-one]"
9,2.63 nM,"COCCN1Cc2nc(C(F)(F)F)ccc2-c2cnc(NCc3c(F)ccc4c3CCO4)n3cnc(c23)C1=O [compound 57, 12-(((5-fluoro-2,3-dihydrobenzofuran-4-yl)methyl)amino)-4-(2-methoxyethyl)-7-(trifluoromethyl)-4,5-dihydro-3H-2,4,6,11,12a-pentaazabenzo[4,5]cycloocta[1,2,3-cd]inden-3-one]"
10,1.18 nM,"O=C1c2ncn3c(NCc4c(F)ccc5c4CCO5)ncc(c23)-c2ccc(C(F)(F)F)cc2CN1C1CCOCC1 [compound 60, 12-(((5-fluoro-2,3-dihydrobenzofuran-4-yl)methyl)amino)-4-(tetrahydro-2H-pyran-4-yl)-7-(trifluoromethyl)-4,5-dihydro-3H-2,4,11,12a-tetraazabenzo[4,5]cycloocta[1,2,3-cd]inden-3-one]"
